The values below come from US9044142B2, “Surgical optical systems for detecting brain tumors” (Carl Zeiss Meditec AG, priority 2010, dated 2015).

The conditions of data set [1]: humans; cited from earlier work.
The test system of data set [2] is GL261-luc glioma cells. Nature of the data set: Intraoperative NIR fluorescence macroscopy of ICG in GL261-luc glioma mouse model. The data set is classed as in vivo. An excerpt:
(§1) The GL261 cell line was obtained from the Division of Cancer Treatment and Diagnosis (DCTD) of the National Cancer Institute (NCl), Frederick, Md. […] The morphological, biochemical and growth characteristics of the GL261 mouse brain tumor model have been described elsewhere (see, e.g., M. Candolfi et al., J Neurooncol 85, 133 (November, 2007) and T. Szatmari et al., Cancer Sci 97, 546 (June, 2006)). To facilitate a quantitative measurement of the tumor growth rate, GL261 cells were made bioluminescent using the Lentiphos™ HT System (Clontech Laboratories, Inc., Mountain View, Calif.) with the Lenti-X™ HT Packaging Mix (Clontech Laboratories, Inc.) and the FUW-GL plasmid (a generous gift from the laboratory of J. B. Rubin, MD, PhD). The resulting GL261-luc cells were grown in Dulbecco's modified eagle's medium (DMEM, Invitrogen, Carlsbad, Calif.) supplemented with 10% tetracycline-free fetal calf serum (Clontech Laboratories, Inc) at 37° C. with 5% CO2. Cultured cells were harvested by trypsinization, washed once in phosphate-buffered saline (Invitrogen, Carlsbad, Calif.), and resuspended in DMEM without serum at a concentration of 1×10^7 cells/mL.
Animals were anesthetized by intraperitoneal injection of a mixture of 10 mg/kg xylazine and 80 mg/kg ketamine (Wyeth, Madison, N.J.). A 10-mm incision was made starting between the animal's eyes, exposing the bregma. […]
This study was conducted in two main phases. The purpose of the first phase was to validate the use of ICG fluorescence in both intraoperative NIR macroscopic and miniaturized confocal endomicroscopic techniques for the identification of brain tumors in the mouse model. […] Several intraoperative fluorescence macroscopic video loops, confocal images, and histological specimens were collected and analyzed from each mouse. […] Two cohorts of animals were used in the second phase: (1) six mice were used for intraoperative fluorescence macroscopy and (2) six mice were used for intraoperative confocal endomicroscopy. […]

Data set [3] relates to GL261-luc glioma cells. Nature of the data set: Intraoperative confocal endomicroscopy of ICG distribution in GL261-luc glioma mouse model. It counts as in vivo. The following applies: 0.4 mg/kg intravenously, mice. How it is done:
Thirty mice implanted with glioblastoma cells underwent craniectomies for exposure of tumors 14 days implantation. Tumors were clearly visible macroscopically and extended from cortical surface to deep basal brain structures. ICG was then administered using 0.4 mg/kg, equivalent to a standard single dose for humans (see, e.g., I. Roberts et al., Lancet 342, (1993)). […] Other regions presented a complex mixture of these patterns, with mostly normal-appearing brain punctuated by large pleomorphic cells consistent with an infiltrative margin or satellite tumor cell clusters surrounded by brain tissue. Importantly, patterns consistent with tumor morphology were also seen in brain tissue neighboring the tumor that appeared macroscopically normal as viewed via the surgical microscope. Critically, individual tumor cells within brain tissue could be identified within 475×475 μm field of view and a definitive tumor border delimited (FIGS. 2A-2D).
as §1
Animals were anesthetized by intraperitoneal injection of a mixture of 10 mg/kg xylazine and 80 mg/kg ketamine (Wyeth, Madison, N.J.). A 10-mm incision was made starting between the animal's eyes, exposing the bregma. A bur hole was made 0.1 mm posterior to the bregma and 2.3 mm right of the midline using a small animal stereotactic headframe (Model 900, David Kopf Instruments, Tujunga, Calif.). […]
This study was conducted in two main phases. The purpose of the first phase was to validate the use of ICG fluorescence in both intraoperative NIR macroscopic and miniaturized confocal endomicroscopic techniques for the identification of brain tumors in the mouse model. […]

The conditions of data set [4]: cited from earlier work.

Regarding `CC1(C)C(/C=C/C=C/C=C/C=C2\N(CCCCS(=O)(=O)O)c3ccc4ccccc4c3C2(C)C)=[N+](CCCCS(=O)(=O)[O-])c2ccc3ccccc3c21` [ICG, Indocyanine green], the toxicity result in data set [1] is on record as “one of the least toxic substances ever administered to humans”. The “intensity of macroscopic fluorescence in the central region of tumor” value with GL261-luc glioma cells [2] (15 minutes after injection versus one minute) was “increased”. Further, the “macroscopic tumor visibility with NIR light” value in the data set with GL261-luc glioma cells [2] (after ICG injection, tumor 14 days after implantation, mice) is given as “macroscopically visible”. The “macroscopic ICG fluorescence in vessels” value in the data set on GL261-luc glioma cells [2] (immediately after intravenous injection) is given as “could be observed in major vessels”. Also, in the data set on GL261-luc glioma cells [3], the “ICG distribution in normal-appearing brain distant from the tumor (confocal endomicroscopy)” value is listed as “predominantly intravascular ICG distribution” and the “ICG distribution within obvious tumor tissue (confocal endomicroscopy)” value is “extravascular ICG concentrated in clusters of cellular structures”. Moreover, in the data set with GL261-luc glioma cells [3] (fifteen minutes after ICG injection), the “ICG fluorescence of tumor cells (confocal endomicroscopy)” value is recorded as “entire tumor mass was saturated with ICG”. In addition, in the data set with GL261-luc glioma cells [3] (immediately after ICG injection), the “ICG fluorescence of tumor cells (confocal endomicroscopy)” value is recorded as “fluorescence was seen only in a few clusters of tumor cells”. Moreover, the “fraction of originally injected volume detectable in the blood” value in data set [4] (after 10 minutes) is given as “only a small fraction”. The “binding to globulins, preferentially to α1-lipoproteins” value in data set [4] (after intravenous injection) is “almost completely”. Moreover, in data set [4] (in vivo), the “main source of clearance” value is given as “hepatic elimination” and the “metabolism in the body” value is recorded as “not metabolized”.
